Structures can show the parent of a compound that is named as a salt. Where two headings read alike, the source gives them in different places.
Key:
A549 [1] = test: In vivo solid tumor disease model, A549 xenograft; set-up: species or system female athymic CD 1 mice
[2] = molecular target: T1, recombinant human c-Met/HGF receptor (Homo sapiens, UniProt P08581); test: In vitro receptor tyrosine kinase assay (DELFIA), c-Met/HGF receptor; type: biochemical; settings: ATP 10 uM, enzyme 25 nM
T1 construct: His tag (histidine tag from pBlueBacHis2A); made in house; host or cells: Hi-5 cells (Trichoplusia ni), recombinant baculovirus

VEGF receptor KDR = molecular target: T2, VEGF receptor KDR (Homo sapiens, UniProt P35968); test: In vitro receptor tyrosine kinase assay (DELFIA), VEGF receptor KDR; type: biochemical; settings: ATP 0.6 uM, enzyme 5 nM
T2 construct: made in house; host or cells: Sf9 cells (Spodoptera frugiperda), recombinant baculovirus
Source text: In Vitro Receptor Tyrosine Kinase Assays (c-Met/HGF receptor and VEGF Receptor KDR)
In the case of VEGF receptor KDR a 1.6-kb cDNA corresponding to the catalytic domain of VEGFR2 or KDR (Genbank accession number AF035121 amino acid 806 to 1356) was cloned into the Pst I site of the pDEST20 Gateway vector (Invitrogen) for the production of a GST-tagged version of that enzyme.
The GST-VEGFR2806-1356 protein was expressed in Sf9 cells (Spodoptera frugiperda) upon infection with recombinant baculovirus construct.
The supernatant was loaded onto a GST-agarose column (Sigma) equilibrated with PBS pH 7.3. Following a four column volume (CV) wash with PBS pH 7.3+1% Triton X-100 and 4 CV wash with buffer B (50 mM Tris pH 8.0, 20% glycerol and 100 mM NaCl), bound proteins were step eluted with 5 CV of buffer B supplemented with 5 mM DTT and 15 mM glutathion. […] Final GST-VEGFR2806-1356 protein preparations concentrations were about 0.7 mg/ml with purity approximating 70%.

TPR-MET fusion protein = TPR-MET fusion protein (Homo sapiens, UniProt P08581); test: C-Met phosphorylation cell-based assay (MNNGHOS cells, immunoblot); settings: Table 30, 3 hours treatment, read-out: C-Met cell-based Y1230-34-35 tpr-met inhibition (IC50)
Source text: C-Met Phosphorylation Cell-Based Assay

U87 cells = test: In vivo solid tumor disease model, U87 xenograft; set-up: species or system female athymic CD 1 mice; settings: U87MG; 100 mg/kg once daily PO; vehicle 5% DMSO - 1% Tween-80 in water; 14 days
Source text: In Vivo Solid Tumor Disease Model
This test measures the capacity of compounds to inhibit solid tumor growth.
Tumor xenografts were established in the flank of female athymic CD 1 mice (Charles River Inc.), by subcutaneous injection of 1×10^6U87, A431 or SKLMS cells/mouse. Once established, tumors were then serially passaged s.c. in nude mice hosts. Tumor fragments from these host animals were used in subsequent compound evaluation experiments. For compound evaluation experiments female nude mice weighing approximately 20 g were implanted s.c. by surgical implantation with tumor fragments of ˜30 mg from donor tumors. When the tumors were approximately 100 mm^3 in size (˜7-10 days following implantation), the animals were randomized a separated into treatment and control groups. Each group contained 6-8 tumor-bearing mice, each of which was ear-tagged and followed individually throughout the experiment
Mice were weighed and tumor measurements are taken by calipers three times weekly, starting on Day 1. These tumor measurements were converted to tumor volume by the well-known formula (L+W/4)^34/3π. The experiment was terminated when the control tumors reached a size of approximately 1500 mm^3. In this model, the change in mean tumor volume for a compound treated group/the change in mean tumor volume of the control group (non-treated or vehicle treated)×100 (ΔT/ΔC) was subtracted from 100 to give the percent tumor growth inhibition (% TGI) for each test compound. In addition to tumor volumes, body weight of animals were monitored twice weekly for up to 3 weeks.
Regiment of administration was once daily.

A549 [3] = test: A549 wound healing inhibition (HGF dependent migration); type: cell-based; settings: Homo sapiens, Table 31, read-out: A549 wound healing inbib IC50
Source text: (§1) HGF has well known activity in terms of inducing scattering and migration (wound healing) (Wells et al., Cell Motil Cytoskeleton. 2005 November 62(3):180-94; Miura et al., Urology 2001 December 58(6):1064-9; Nishimura et al., Int J. Urol. 1998 May 5(3):276-81; Wang et al., Mol Cancer Ther. 2003 November; 2(11):1085-92; and Christensen et al., Cancer Res. 2003 Nov. 1; 63(21):7345-55).

DU145 = DU145 scattering inhibition (HGF dependent scattering); type: cell-based; settings: Homo sapiens, DU-145, Table 31, read-out: DU145 scattering inhib IC50
Source text: as §1

[4] = Table 30, read-out: C-Met (enz.) (IC50)
[5] = Table 30, read-out: VEGF(enz.) (IC50)

Chain of TPR-MET fusion protein (P08581 with tags, fused parts or gaps): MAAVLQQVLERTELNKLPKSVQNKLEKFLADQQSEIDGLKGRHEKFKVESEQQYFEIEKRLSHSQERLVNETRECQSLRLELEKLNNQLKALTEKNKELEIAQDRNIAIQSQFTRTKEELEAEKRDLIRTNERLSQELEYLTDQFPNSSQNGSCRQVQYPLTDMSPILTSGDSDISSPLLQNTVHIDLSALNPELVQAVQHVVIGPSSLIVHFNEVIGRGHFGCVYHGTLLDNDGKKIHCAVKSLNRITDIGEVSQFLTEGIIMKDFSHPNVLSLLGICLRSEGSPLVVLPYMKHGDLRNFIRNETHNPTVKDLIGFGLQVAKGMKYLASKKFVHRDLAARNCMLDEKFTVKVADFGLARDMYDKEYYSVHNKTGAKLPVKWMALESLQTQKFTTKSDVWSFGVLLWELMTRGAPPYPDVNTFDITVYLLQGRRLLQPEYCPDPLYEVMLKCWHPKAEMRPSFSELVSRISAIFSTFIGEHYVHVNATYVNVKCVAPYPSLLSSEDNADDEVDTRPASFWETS
T2 sequence (P35968 806-1356): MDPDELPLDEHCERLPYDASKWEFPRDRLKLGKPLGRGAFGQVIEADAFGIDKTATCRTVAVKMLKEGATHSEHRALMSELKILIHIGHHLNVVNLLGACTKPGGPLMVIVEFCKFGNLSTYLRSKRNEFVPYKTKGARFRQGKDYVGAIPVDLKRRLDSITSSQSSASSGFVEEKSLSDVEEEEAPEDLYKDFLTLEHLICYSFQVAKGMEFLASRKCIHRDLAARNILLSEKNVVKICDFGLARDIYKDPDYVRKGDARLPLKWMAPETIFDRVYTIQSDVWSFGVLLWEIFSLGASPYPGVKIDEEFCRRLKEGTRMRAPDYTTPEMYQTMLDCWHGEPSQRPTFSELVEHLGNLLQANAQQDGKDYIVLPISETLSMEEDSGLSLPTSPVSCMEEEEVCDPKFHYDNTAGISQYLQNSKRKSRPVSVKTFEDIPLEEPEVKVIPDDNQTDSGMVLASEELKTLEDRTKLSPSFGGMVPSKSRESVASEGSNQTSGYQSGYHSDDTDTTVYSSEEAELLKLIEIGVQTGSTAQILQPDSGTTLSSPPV
T1 sequence (P08581 1078-1337): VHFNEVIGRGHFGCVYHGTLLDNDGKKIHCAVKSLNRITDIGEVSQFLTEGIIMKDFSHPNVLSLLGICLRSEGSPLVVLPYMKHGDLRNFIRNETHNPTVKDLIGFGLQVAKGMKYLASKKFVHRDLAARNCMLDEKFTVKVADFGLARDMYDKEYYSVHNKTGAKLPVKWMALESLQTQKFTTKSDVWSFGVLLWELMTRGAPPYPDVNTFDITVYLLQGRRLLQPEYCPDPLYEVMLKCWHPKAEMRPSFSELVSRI

IC50 ([2]; Table 31, read-out: CMet ic50) | IC50 (A549 [3]) | IC50 (VEGF receptor KDR; Table 31, read-out: VEGFR IC50) | IC50 (DU145) | Compound | also measured
< 50 nM | < 1000 nM | 50 to 250 nM | < 1000 nM | Cn1cnc(-c2cc3nccc(Oc4ccc(NC(=S)NC(=O)Cc5cccc(F)c5)cc4F)c3s2)c1 | 
< 50 nM | < 1000 nM | < 50 nM | < 1000 nM | Cn1cnc(-c2cc3nccc(Oc4ccc(NC(=S)NC(=O)Cc5ccc(F)cc5F)cc4F)c3s2)c1 [drawing 434] | 
< 50 nM | < 1000 nM | 50 to 250 nM | < 1000 nM | O=C(Cc1ccc(F)cc1)NC(=S)Nc1ccc(Oc2ccnc3cc(-c4cc[n+]([O-])cc4)sc23)c(F)c1 | 
< 50 nM | < 1000 nM | < 50 nM | < 1000 nM | CN(C)C(=O)c1ccc(-c2cc3nccc(Oc4ccc(NC(=S)NC(=O)Cc5ccc(F)cc5)cc4F)c3s2)cc1 | 
50 to 250 nM | 1000 to 5000 nM | < 50 nM | 1000 to 5000 nM | C#Cc1ccc(CC(=O)NC(=S)Nc2ccc(Oc3ccnc4cc(-c5cn(CC)cn5)sc34)c(F)c2)cc1 | 
< 50 nM | 1000 to 5000 nM | < 50 nM | < 1000 nM | CCn1cnc(-c2cc3nccc(Oc4ccc(NC(=S)NC(=O)Cc5ccc(F)cc5F)cc4F)c3s2)c1 | 
< 50 nM | < 1000 nM | < 50 nM | < 1000 nM | CCn1cnc(-c2cc3nccc(Oc4ccc(NC(=S)NC(=O)Cc5cccc(F)c5)cc4F)c3s2)c1 | 
< 50 nM | < 1000 nM | < 50 nM | < 1000 nM | CN1CCN(Cc2ccc(-c3cc4nccc(Oc5ccc(NC(=S)NC(=O)Cc6ccc(F)cc6)cc5F)c4s3)cc2)CC1 | 
< 50 nM | < 1000 nM | < 50 nM | < 1000 nM | CCn1ccnc1-c1cc2nccc(Oc3ccc(NC(=S)NC(=O)Cc4ccc(F)cc4)cc3F)c2s1 | 

More lines, now with the values behind:

Compound | IC50 ([2]; Table 31, read-out: CMet ic50) | IC50 (A549 [3]) | IC50 (VEGF receptor KDR; Table 31, read-out: VEGFR IC50) | IC50 (DU145) | also measured
C#Cc1ccccc1CC(=O)NC(=S)Nc1ccc(Oc2ccnc3cc(-c4cn(CC)cn4)sc23)c(F)c1 [drawing 496] |  |  |  |  | Tumor Growth Inhibition (%) (A549 [1]; 40 mg/kg once daily p.o., 14 days): b (% TGI in the range of 50-74)
O=C(Cc1ccccc1)NC(=S)Nc1ccc(Oc2ncnc3cc(C(=O)NCCN4CCOCC4)sc23)c(F)c1 [Example 22, 1-(4-(6-(2-Morpholinoethylcarbamoyl)thieno[3,2-d]pyrimidin-4-yloxy)-3-fluorophenyl)-3-(2-phenylacetyl)thiourea] |  |  |  |  | IC50 [2, 4]: 50 to 250 nM; IC50 (VEGF receptor KDR; [5]): 50 to 250 nM; IC50 (TPR-MET fusion protein): < 50 nM
NC(=O)[C@@H]1CCCN1C(=O)c1cc2nccc(Oc3ccc(NC(=S)NC(=O)Cc4ccccc4)cc3F)c2s1 [Example 40, (S)-1-(7-(2-Fluoro-4-(3-(2-phenylacetyl)thioureido)phenoxy)thieno[3,2-b]pyridine-2-carbonyl)pyrrolidine-2-carboxamide] |  |  |  |  | IC50 [2, 4]: 50 to 250 nM; IC50 (VEGF receptor KDR; [5]): < 50 nM; IC50 (TPR-MET fusion protein): 50 to 250 nM
O=C(Cc1ccccc1)NC(=S)Nc1ccc(Oc2ccnc3cc(C(=O)N4CC[C@H](O)C4)sc23)c(F)c1 [Example 39, (S)-N-(3-Fluoro-4-(2-(3-hydroxypyrrolidine-1-carbonyl)thieno[3,2-b]pyridin-7-yloxy)phenylcarbamothioyl)-2-phenylacetamide] |  |  |  |  | Tumor Growth Inhibition (%) (A549 [1]; 30 mg/kg once daily IP, vehicle DMSO, 14 days): b (% TGI in the range of 50-74)
O=C(Cc1ccccc1)NC(=S)Nc1ccc(Oc2ccnc3cc(-c4ccc(CN5CCOCC5)cc4)sc23)c(F)c1 [Example 56, 1-(3-Fluoro-4-(2-(4-(morpholinomethyl)phenyl)thieno[3,2-b]pyridin-7-yloxy)phenyl)-3-(2-phenylacetyl)thiourea] |  |  |  |  | Tumor Growth Inhibition (%) (A549 [1]; 30 mg/kg once daily IP, vehicle DMSO, 12 days): c (% TGI in the range of 25-49)
Cn1cnc(-c2cc3nccc(Oc4ccc(NC(=S)NC(=O)Cc5ccccc5)cc4)c3s2)c1 [Example 201, N-(4-(2-(1-Methyl-1H-imidazol-4-yl)thieno[3,2-b]pyridin-7-yloxy)phenylcarbamothioyl)-2-phenylacetamide] |  |  |  |  | Tumor Growth Inhibition (%) (A549 [1]; 30 mg/kg once daily IP, vehicle DMSO, 10 days): c (% TGI in the range of 25-49); Tumor Growth Inhibition (%) (A549 [1]; 75 mg/kg once daily PO, vehicle 5% DMSO - 1% Tween-80 in water, 10 days): c (% TGI in the range of 25-49)
O=C(Cc1ccccc1)NC(=S)Nc1ccc(Oc2ncnc3cc(C(=O)N4CCCC4)sc23)c(F)c1 [Example 142, N-(3-Fluoro-4-(6-(pyrrolidine-1-carbonyl)thieno[3,2-d]pyrimidin-4-yloxy)phenylcarbamothioyl)-2-phenylacetamide] |  |  |  |  | IC50 [2, 4]: 50 to 250 nM; IC50 (VEGF receptor KDR; [5]): < 50 nM; IC50 (TPR-MET fusion protein): < 50 nM
1-(4-(6-(4-N- Methylpiperazylcarbamoyl) thieno[3,2- d]pyrimidin-4-yloxy)- 3-fluorophenyl)-3-(2- phenylacetyl)thiourea [Example 24] |  |  |  |  | IC50 [2, 4]: 50 to 250 nM; IC50 (VEGF receptor KDR; [5]): 250 to 500 nM; IC50 (TPR-MET fusion protein): > 500 nM
CCn1ccnc1-c1cc2nccc(Oc3ccc(NC(=S)NC(=O)Cc4ccccc4)cc3F)c2s1 [Example 73, N-(4-(2-(1-Ethyl-1H-imidadzol-2-yl)thieno[3,2-b]pyridin-7-yloxy)-3-fluorophenylcarbamothioyl)-2-phenylacetamide] |  |  |  |  | Tumor Growth Inhibition (%) (U87 cells): c (% TGI in the range of 25-49)
CC(C)N(CCNC(=O)c1cc2nccc(Oc3ccc(NC(=S)NC(=O)Cc4ccccc4)cc3F)c2s1)C(C)C [Example 36, 7-[2-Fluoro-4-(3-phenylacetyl-thioureido)-phenoxy]-thieno[3,2-b]pyridine-2-carboxylic acid (2-diisopropylamino-ethyl)-amide, formate salt] |  |  |  |  | IC50 [2, 4]: 50 to 250 nM; IC50 (VEGF receptor KDR; [5]): > 500 nM; IC50 (TPR-MET fusion protein): 50 to 250 nM
CN(Cc1ccco1)C(=O)c1cc2nccc(Oc3ccc(NC(=S)NC(=O)Cc4ccccc4)cc3F)c2s1 [Example 35, 7-[2-Fluoro-4-(3-phenylacetyl-thioureido)-phenoxy]-thieno[3,2-b]pyridine-2-carboxylic acid furan-2-ylmethyl-methyl-amide] |  |  |  |  | IC50 [2, 4]: 50 to 250 nM; IC50 (VEGF receptor KDR; [5]): 50 to 250 nM; IC50 (TPR-MET fusion protein): < 50 nM
C=C(F)c1cccc(CC(=O)NC(=S)Nc2ccc(Oc3ccnc4cc(-c5cn(C)cn5)sc34)c(F)c2)c1 | 50 to 250 nM | 1000 to 5000 nM | 50 to 250 nM | 1000 to 5000 nM | 
CCn1cnc(-c2cc3nccc(Oc4ccc(NC(=S)NC(=O)Cc5ccccc5O)cc4F)c3s2)c1 | < 50 nM | 1000 to 5000 nM | < 50 nM | 1000 to 5000 nM | 
C#Cc1ccc(CC(=O)NC(=S)Nc2ccc(Oc3ccnc4cc(-c5cn(CCN6CCCC6)cn5)sc34)c(F)c2)cc1 | 50 to 250 nM | > 10000 nM | < 50 nM | > 10000 nM | 
CN(CCO)Cc1ccc(-c2cc3nccc(Oc4ccc(NC(=S)NC(=O)Cc5ccccc5)cc4F)c3s2)cc1 | < 50 nM | < 1000 nM | < 50 nM | < 1000 nM | 
C#Cc1ccc(CC(=O)NC(=S)Nc2ccc(Oc3ccnc4cc(-c5ccc(CN6CCN(C)CC6)cc5)sc34)c(F)c2)cc1 | 50 to 250 nM | > 10000 nM | < 50 nM | 1000 to 5000 nM | 
CN(c1ccc(NC(=S)NC(=O)Cc2ccccc2)cc1F)c1ccnc2cc(-c3nccn3C)sc12 | < 50 nM | < 1000 nM | > 500 nM | < 1000 nM | 

Reference: patent US20100249145A1, “Inhibitors of VEGF Receptor and HGF Receptor Signaling” (Methylgene, Inc., priority 2005, published 2010)
